From article doi:10.1101/2023.06.16.545261v2 (biorxiv, 2023)

Experiments:
[1] = target: T1, SIRT7 (recombinant human SIRT7, non-tagged) (Homo sapiens, UniProt Q9NRC8); assay: fluorogenic deacylase assay; assay type: biochemical
T1 sequence (Q9NRC8 1-400): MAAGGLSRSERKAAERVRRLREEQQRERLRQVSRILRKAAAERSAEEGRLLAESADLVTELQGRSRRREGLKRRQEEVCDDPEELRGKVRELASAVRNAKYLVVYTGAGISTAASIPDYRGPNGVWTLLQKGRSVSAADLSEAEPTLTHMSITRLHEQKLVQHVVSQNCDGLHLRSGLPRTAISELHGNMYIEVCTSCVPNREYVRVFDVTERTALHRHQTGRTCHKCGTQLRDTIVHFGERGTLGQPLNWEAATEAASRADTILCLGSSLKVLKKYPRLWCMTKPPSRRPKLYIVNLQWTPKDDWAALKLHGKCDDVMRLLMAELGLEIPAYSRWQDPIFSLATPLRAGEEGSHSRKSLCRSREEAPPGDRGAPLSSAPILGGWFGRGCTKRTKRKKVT

[2] = target: T1, SIRT7 (recombinant human SIRT7, non-tagged); assay: fluorogenic deacylase assay; assay type: biochemical; settings: read-out: % inhibition at 100 μM

## CCCCCCCCCCCCNC(=O)CCCCC[C@H](NC(=O)OCc1ccccc1)C(=O)N[C@H](C(=O)N[C@@H](CCC(=O)O)C(N)=O)C(C)C [compound 33, inverse amide 33]
[1]
  IC50: 44 µM

## CCCCCCCCCCCCNC(=S)CCCCC[C@H](NC(=O)OCc1ccccc1)C(=O)N[C@H](C(=O)N[C@@H](CCC(=O)O)C(N)=O)C(C)C [compound 34, inverse thioamide 34]
[1]
  IC50: 34 µM

## CCCCCCCCCCCCNC(=S)NCCCC[C@H](NC(=O)OCc1ccccc1)C(=O)N[C@@H](C)C(=O)N[C@@H](CCCNC(=N)N)C(N)=O [compound 3]
[2]
  inhibition at 100 µM: 26%
